Measured values taken from PubChem BioAssay AID2060499 (Molecular Pharmacology Branch, DTP, NCI, 2025).

Tested on: 777334-354-R2-J4-PDC tumor spheroids with HUVEC/MSC, viability
Assay: Anticancer human tumor 777334-354-R2-J4-PDC patient-derived pancreatic adenocarcinoma cell line growth inhibition [GQUAD]
Conditions: for IC50: curve of first compound; for viability, T/C: stronger effect = lower value; active = viability on the fitted dose curve at most 10% of control; inactive = the rest
Source text: DNA G-quadruplex Stabilizer Agents in Combinations in Complex Spheroids
A high-throughput screen of multi-cell type tumor spheroids was designed to identify active combinations of DNA G-quadruplex stabilizer agents and targeted small molecules. Complex spheroids include a stromal component modeled by human endothelial cells (HUVEC) and fibroblasts modeled by human mesenchymal stem cells (MSCs). The concentration ranges selected for each drug and investigational agent were based upon clinically achievable concentrations if the clinical Cmax of the agent was known.
Compounds. The drugs and investigational agents: pidnarulex (CX-5461; NSC782164), APTO-253 (NSC789042), BRACO-19 (NSC847499), peposertib (NSC802822), ceralasertib (NSC780249), elimusertib (NSC800525), camonsertib (NSC841442), AZD-1390 (NSC803789), olaparib (NSC753686), talazoparib (NSC767125), ART-558 (NSC835418), sotorasib (NSC818433), MRTX-1133 (NSC836407), SN-38 (NSC673596), topotecan (NSC609699), etoposide (NSC141540), doxorubicin (NSC123127), gemcitabine (NSC613327), 5-fluorouracil (NSC19893), paclitaxel (NSC125973), vemurafenib (NSC761431), panobinostat (NSC761190), R-306465 (JNJ-16241199; NSC773264), adavosertib (NSC754352), TP-3654 (NSC805149), carboplatin (NSC241240), KSQ-4279 (NSC840948), and staurosporine (NSC755774) were obtained from the National Cancer Institute (NCI) Developmental Therapeutics Program Chemical Repository (34). The FDA-approved anticancer drug set is available from the NCI Developmental Therapeutics Program. […] The stock solutions were prepared in dimethyl sulfoxide (DMSO, Sigma-Aldrich, St. Louis, MO, cat. D2650) at 800-fold the tested concentration and stored at -70 degrees C prior to their use. All drugs and investigational agents were tested over a range starting from a high concentration at or near the clinical Cmax and decreasing in half-log increments. If the clinical Cmax for an agent had not been determined, the highest concentration tested was 10 microM.
2.3 Cell Culture. All cells were maintained in an incubator at 37 degrees C and 5% CO2 with 95% humidity. The PDC lines were cultured according to standard operating procedures established by the NCI PDMR. All PDCs were thawed and cultured in Matrigel-coated flasks prepared with a working solution of 1X Ham's F-12 nutrient mix, without supplementation (Invitrogen, cat. 11765054), 100 U/mL penicillin-streptomycin (Invitrogen, cat. 15140122), and 2.5% Matrigel (Corning Inc., cat. 354248) for the first three passages. The 857933-349-R-J2-PDC line was cultured in 6C/Colon 1B media, which includes advanced DMEM/F-12 (Thermo Fisher Scientific, cat. 12634028), 10 mM HEPES (Thermo Fisher Scientific, cat. 15630080), 1X GlutaMAX supplement (Thermo Fisher Scientific, cat. 35050061), 0.1 mg/mL primocin (InvivoGen, cat. ant-pm-2), 10% defined fetal bovine serum, heat inactivated (HyClone Laboratories Inc., cat. SH30070.03HI), 50% L-WRN conditioned media (ATCC, cat. CRL-3276), 1.25 mM N-Acetyl-L-cysteine (Sigma-Aldrich, cat. A9165), 10 mM nicotinamide (Sigma-Aldrich, cat. N0636), 1X B-27 supplement (Thermo Fisher Scientific, cat. 17504044), 1X N-2 supplement (Thermo Fisher Scientific, cat. 17502048), 10 microM Y-27632 dihydrochloride (Tocris Bioscience, cat. 1254), and 50 ng/mL human EGF recombinant protein (Thermo Fisher Scientific, cat. PHG0311). The 485176-168-R4-J1-PDC line was cultured in Panc media, which includes all 6C/Colon 1B media components plus 100 ng/mL human FGF-10 (Thermo Fisher Scientific, cat. 100-26), 500 nM SB-431542 (Selleckchem, cat. S1067), and gastrin (Tocris, cat. 3006).
[…]

[1] = second compound 0.0316 µM, first compound 0.0316 µM
[2] = second compound 0.0316 µM, first compound 0.1 µM
[3] = second compound 0.0316 µM, first compound 0.316 µM
[4] = second compound 0.0316 µM, first compound 1 µM
[5] = second compound 0.0316 µM, first compound 3.16 µM
[6] = second compound 0.0316 µM, first compound 10 µM
[7] = second compound 0.1 µM, first compound 0.0316 µM
[8] = second compound 0.1 µM, first compound 0.1 µM
[9] = second compound 0.1 µM, first compound 0.316 µM
[10] = second compound 0.1 µM, first compound 1 µM
[11] = second compound 0.1 µM, first compound 3.16 µM
[12] = second compound 0.1 µM, first compound 10 µM
[13] = second compound 0.316 µM, first compound 0.0316 µM
[14] = second compound 0.316 µM, first compound 0.1 µM
[15] = second compound 0.316 µM, first compound 0.316 µM
[16] = second compound 0.316 µM, first compound 1 µM
[17] = second compound 0.316 µM, first compound 3.16 µM
[18] = second compound 0.316 µM, first compound 10 µM
[19] = second compound 1 µM, first compound 0.0316 µM
[20] = second compound 1 µM, first compound 0.1 µM
[21] = second compound 1 µM, first compound 0.316 µM
[22] = second compound 1 µM, first compound 1 µM
[23] = second compound 1 µM, first compound 3.16 µM
[24] = second compound 1 µM, first compound 10 µM
[25] = second compound 3.16 µM, first compound 0.0316 µM
[26] = second compound 3.16 µM, first compound 0.1 µM
[27] = second compound 3.16 µM, first compound 0.316 µM
[28] = second compound 3.16 µM, first compound 1 µM
[29] = second compound 3.16 µM, first compound 3.16 µM
[30] = second compound 3.16 µM, first compound 10 µM
[31] = second compound 10 µM, first compound 0.0316 µM
[32] = second compound 10 µM, first compound 0.1 µM
[33] = second compound 10 µM, first compound 0.316 µM
[34] = second compound 10 µM, first compound 1 µM
[35] = second compound 10 µM, first compound 3.16 µM
[36] = second compound 10 µM, first compound 10 µM
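Also: spheroids exposed to compounds for 7 days before readout.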

COc1ccc([C@@H](O)c2cc(-c3ncnc4cc(N5CCOCC5)ccc34)c(F)cc2Cl)nn1 + CN(C)c1ccc(Nc2c3ccc(NC(=O)CCN4CCCC4)cc3nc3cc(NC(=O)CCN4CCCC4)ccc23)cc1
3.58 µM: IC50 (second compound 0.0316 µM)
2.71 µM: IC50 (second compound 1 µM)
3.71 µM: IC50 (second compound 0.1 µM)
1.12 µM: IC50 (second compound 10 µM)
inactive: viability, T/C [1] 88.8% | viability, T/C [2] 88.9% | viability, T/C [3] 84.3% | viability, T/C [4] 72.4% | viability, T/C [5] 53.6% | viability, T/C [6] 23.9% | viability, T/C [7] 96.6% | viability, T/C [8] 81.3% | viability, T/C [9] 96.2% | viability, T/C [10] 68.8% | viability, T/C [11] 55.5% | viability, T/C [12] 26.9% | viability, T/C [13] 96.8% | viability, T/C [14] 83.2% | viability, T/C [15] 79.4% | viability, T/C [16] 68.7% | viability, T/C [17] 48.9% | viability, T/C [18] 24.5% | viability, T/C [19] 86.2% | viability, T/C [20] 86.4% | viability, T/C [21] 76.6% | viability, T/C [22] 73.1% | viability, T/C [23] 45.7% | viability, T/C [24] 23.1% | viability, T/C [25] 72.5% | viability, T/C [26] 81.2% | viability, T/C [27] 73.3% | viability, T/C [28] 57.8% | viability, T/C [29] 42.5% | viability, T/C [30] 20.6% | viability, T/C [31] 81.3% | viability, T/C [32] 71.8% | viability, T/C [33] 69.5% | viability, T/C [34] 51% | viability, T/C [35] 32.9% | viability, T/C [36] 17.4%
1.86 µM: IC50 (second compound 3.16 µM)
2.97 µM: IC50 (second compound 0.316 µM)

O=C(c1cc(Cc2n[nH]c(=O)c3ccccc23)ccc1F)N1CCN(C(=O)C2CC2)CC1 + CN(C)c1ccc(Nc2c3ccc(NC(=O)CCN4CCCC4)cc3nc3cc(NC(=O)CCN4CCCC4)ccc23)cc1
> 10 µM: IC50 (second compound 0.0316 µM) | IC50 (second compound 0.1 µM) | IC50 (second compound 0.316 µM) | IC50 (second compound 1 µM) | IC50 (second compound 3.16 µM) | IC50 (second compound 10 µM)
inactive: viability, T/C [1] 97.1% | viability, T/C [2] 104% | viability, T/C [3] 104% | viability, T/C [4] 86% | viability, T/C [5] 84% | viability, T/C [6] 74.3% | viability, T/C [7] 88% | viability, T/C [8] 82.6% | viability, T/C [9] 93.5% | viability, T/C [10] 92.1% | viability, T/C [11] 88.5% | viability, T/C [12] 72.5% | viability, T/C [13] 80.6% | viability, T/C [14] 94.9% | viability, T/C [15] 97.2% | viability, T/C [16] 81% | viability, T/C [17] 94.1% | viability, T/C [18] 66.7% | viability, T/C [19] 84.9% | viability, T/C [20] 89.8% | viability, T/C [21] 86.7% | viability, T/C [22] 86.2% | viability, T/C [23] 80.4% | viability, T/C [24] 65.4% | viability, T/C [25] 79.7% | viability, T/C [26] 81.7% | viability, T/C [27] 68.3% | viability, T/C [28] 76.2% | viability, T/C [29] 82.6% | viability, T/C [30] 69.1% | viability, T/C [31] 64.7% | viability, T/C [32] 76.7% | viability, T/C [33] 76.4% | viability, T/C [34] 81% | viability, T/C [35] 71% | viability, T/C [36] 66.9%
